These results are taken from ChEMBL document CHEMBL1146907, “New, potent P1/P2-morpholinone-based HIV-protease inhibitors” (Bioorg Med Chem Lett, 2006).

This assay addresses Human immunodeficiency virus type 1 protease (Human immunodeficiency virus 1, UniProt Q72874). Briefly: Inhibition of HIV protease.

The term Ki denotes a dissociation constant, usually derived from enzyme kinetics or from competition with a known ligand. A lower Ki goes with tighter binding.

`COc1ccc(S(=O)(=O)N(CC2CCCC2)C[C@@H](O)CN2C(=O)C3(CCCCC3)OC[C@@H]2Cc2ccccc2)cc1` returned a Ki of 2 nM.

In turn, `COc1ccc(S(=O)(=O)N(CC2CCCC2)C[C@@H](O)CN2C(=O)[C@@H](Cc3ccccc3)OC[C@@H]2Cc2ccccc2)cc1` returned a Ki of 35 nM. Compound `COc1ccc(S(=O)(=O)N(CC2CCCC2)C[C@@H](O)CN2C(=O)[C@@H](CCCN)OC[C@@H]2Cc2ccccc2)cc1` came in with an inhibitory constant (Ki) of 5800 nM. For `COc1ccc(S(=O)(=O)N(CC2CCCC2)C[C@@H](O)CN2C(=O)[C@@H](CCN)OC[C@@H]2Cc2ccccc2)cc1`, the affinity, expressed as Ki, was 600 nM. `COc1ccc(S(=O)(=O)N(CC2CCCC2)C[C@@H](O)CN2C(=O)C3(CC3)OC[C@@H]2Cc2ccccc2)cc1` returned an inhibition constant Ki of 9 nM.

As for `COc1ccc(S(=O)(=O)N(CC2CCCC2)N2C(=O)C3(CCOCC3)OC[C@@H]2Cc2ccccc2)cc1`, the Ki came to 23 nM. Regarding `C=CC[C@@H]1OC[C@H](Cc2ccccc2)N(C[C@H](O)CN(CC2CCCC2)S(=O)(=O)c2ccc(OC)cc2)C1=O`, the inhibition constant (Ki) turned out to be 270 nM. In the case of `COc1ccc(S(=O)(=O)N(CC2CCCC2)C[C@@H](O)CN2C(=O)[C@@H](CCO)OC[C@@H]2Cc2ccccc2)cc1`, affinity was put at a Ki of 30 nM. The compound `COc1ccc(S(=O)(=O)N(CC2CCCC2)C[C@@H](O)CN2C(=O)[C@@H](CCN=[N+]=[N-])OC[C@@H]2Cc2ccccc2)cc1` returned a Ki of 81 nM. In the case of `COc1ccc(S(=O)(=O)N(CC2CCCC2)C[C@@H](O)CN2C(=O)[C@@H](CCC(N)=O)OC[C@@H]2Cc2ccccc2)cc1` it was 49 nM; in that of `COc1ccc(S(=O)(=O)N(CC2CCCC2)C[C@@H](O)CN2C(=O)[C@H](Cc3cccc(C#N)c3)OC[C@@H]2Cc2ccccc2)cc1`, 490 nM. In the case of `COc1ccc(S(=O)(=O)N(CC2CCCC2)C[C@@H](O)CN2C(=O)[C@@H](CCC#N)OC[C@@H]2Cc2ccccc2)cc1` it was 11 nM; in that of `C=CC[C@H]1OC[C@H](Cc2ccccc2)N(C[C@H](O)CN(CC2CCCC2)S(=O)(=O)c2ccc(OC)cc2)C1=O`, 2 nM.

On to `COc1ccc(S(=O)(=O)N(CC2CCCC2)C[C@@H](O)CN2C(=O)[C@H](C)OC[C@@H]2Cc2ccccc2)cc1`, for which the Ki worked out at 38 nM.

The compound `COc1ccc(S(=O)(=O)N(CC2CCCC2)C[C@@H](O)CN2C(=O)[C@@H](Cc3cccc(C#N)c3)OC[C@@H]2Cc2ccccc2)cc1` returned a Ki of 55 nM.
